Measurements reported in patent publication US7368457B2, “Bridged N-arylsulfonylpiperidines as gamma-secretase inhibitors” (Schering Corporation, priority 2003, dated 2008).

Each molecule was assayed against T1, gamma secretase (Homo sapiens, UniProt P49768) (assay: Gamma secretase activity in membranes of 293 cells expressing C99 (SPC99-Lon), Aβ 40 / Aβ 42 ECL immunoassay). Details: not given.
T1 construct: endogenous in cells; host or cells: Membranes of 293 T-REx cells, clone pTRE.15; The enzyme is endogenous; only the substrate SPC99-Lon is transfected
Format: biochemical
Source text: Reagents. Antibodies WO2, G2-10, and G2-11 were obtained from Dr. Konrad Beyreuther (University of Heidelberg, Heidelberg, Germany). WO2 recognizes residues 5-8 of Aβ peptide, while G2-10 and G2-11 recognize the specific C-terminal structure of Aβ 40 and Aβ 42, respectively. Biotin-4G8 was purchased from Senetec (St. Louis, Mo.). All tissue culture reagents used in this work were from Life Technologies, Inc., unless otherwise specified. Pepstatin A was purchased from Roche Molecular Biochemicals; DFK167 was from Enzyme Systems Products (Livermore, Calif.).
cDNA Constructs, Tissue Culture, and Cell Line Construction. […] Upon insertion into the membrane, the 17 amino acid signal peptide is processed, leaving an additional leucine at the N-terminus of Aβ SPC99-Ion was cloned into the pcDNA4/TO vector (Invitrogen) and transfected into 293 cells stably transfected with pcDNA6/TR, which is provided in the T-REx system (Invitrogen). The transfected cells were selected in Dulbecco's modified Eagle's media (DMEM) supplemented with 10% fetal bovine serum, 100 units/mL penicillin, 100 µg/mL streptomycin, 250 µg/mL zeocin, and 5 µg/mL blasticidin (Invitrogen). Colonies were screened for Aβ production by inducing C99 expression with […] tetracycline for 16-20 h and analyzing conditioned media with a sandwich immunoassay (see below). One of the clones, designated as pTRE.15, was used in these studies.
Membrane Preparation. C99 expression in cells was induced with […] tetracycline for 20 h. The cells were pretreated with […] 12-myristate 13-acetate (PMA) and […] brefeldin A (BFA) for 5-6 h at 37 C before harvesting. The cells were washed 3 times with cold phosphate-buffered saline (PBS) and harvested in buffer A containing 20 mM Hepes (pH 7.5), 250 mM sucrose, 50 mM KCl, 2 mM EDTA, 2 mM EGTA, and Complete protease inhibitor tablets (Roche Molecular Biochemicals). The cell pellets were flash-frozen in liquid nitrogen and stored at −70 C before use.
To make membranes, the cells were resuspended in buffer A and lysed in a nitrogen bomb at 600 psi. The cell lysate was centrifuged at 1500 g for 10 min to remove nuclei and large cell debris. The supernatant was centrifuged at 100000 g for 1 h. The membrane pellet was resuspended in buffer A plus 0.5 M NaCl, and the membranes were collected by centrifugation at 200000 g for 1 h. The salt-washed membrane pellet was washed again in buffer A and centrifuged at 100000 g for 1 h. The final membrane pellet was resuspended in a small volume of buffer A using a Teflon-glass homogenizer. The protein concentration was determined, and membrane aliquots were flash-frozen in liquid nitrogen and stored at −70° C.
γ-Secretase Reaction and Aβ Analysis. To measure γ-secretase activity, membranes were incubated at 37° C. for 1 h in 50 μL of buffer containing 20 mM Hepes (pH 7.0) and 2 mM EDTA. At the end of the incubation, Aβ 40 and Aβ 42 were measured using an electrochemiluminescence (ECL)-based immunoassay. Aβ 40 was identified with antibody pairs TAG-G2-10 and biotin-WO2, while Aβ 42 was identified with TAG-G2-11 and biotin-4G8. The ECL signal was measured using an ECL-M8 instrument (IGEN International, Inc.) according to the manufacturer's instructions. The data presented were the means of the duplicate or triplicate measurements in each experiment.

IC50 [µM] | SMILES
1 to 10 | O=C(O[C@@H]1CCC2CCCC1N2S(=O)(=O)c1ccc(Cl)cc1)N1CCC(N2CCCCC2)CC1 (stereo partly shown) [Example 15]
~0.016 | O=C(O[C@H]1CCC2CCCC1N2S(=O)(=O)c1ccc(Cl)cc1)N1CCC(N2CCCCC2)CC1 (stereo partly shown) [Example 16]

Same assay, conditions: gamma secretase membrane assay; ranges given as 'about 0.1 to about 1.0 μM' and 'about 1 to about 10 μM'; read-out: IC50

SMILES | IC50 [µM]
O=C(O[C@H]1CCC2CCCC1N2S(=O)(=O)c1ccc(Cl)cc1)N1CCN(CCO)CC1 (stereo partly shown) [Example 14] | 0.1 to 1
O=C(O[C@H]1CCC2CCCC1N2S(=O)(=O)c1ccc(Cl)cc1)N1CCN(CC2CC2)CC1 (stereo partly shown) [Example 17] | 0.1 to 1
CC(C)N1CCN(C(=O)O[C@H]2CCC3CCCC2N3S(=O)(=O)c2ccc(Cl)cc2)CC1 (stereo partly shown) [Example 21] | 0.1 to 1
O=C(O[C@H]1CCC2CCCC1N2S(=O)(=O)c1ccc(Cl)cc1)N1CCN(CCCO)CC1 (stereo partly shown) [Example 22] | 0.1 to 1
O=C(O[C@H]1CCC2CCCC1N2S(=O)(=O)c1ccc(Cl)cc1)N1CCN(c2ccccc2)CC1 (stereo partly shown) [Example 23] | 0.1 to 1
O=C(O[C@H]1CCC2CCCC1N2S(=O)(=O)c1ccc(Cl)cc1)N1CCC(O)(c2ccc(Cl)cc2)CC1 (stereo partly shown) [Example 24] | 0.1 to 1
CCN(CC)C(=O)C1CCCN(C(=O)O[C@H]2CCC3CCCC2N3S(=O)(=O)c2ccc(Cl)cc2)C1 (stereo partly shown) [Example 25] | 0.1 to 1
CN1CCN(C(=O)O[C@H]2CCC3CCCC2N3S(=O)(=O)c2ccc(Cl)cc2)CC1 (stereo partly shown) [Example 26] | 0.1 to 1
COC(=O)C1CCN(C(=O)O[C@H]2CCC3CCCC2N3S(=O)(=O)c2ccc(Cl)cc2)CC1 (stereo partly shown) [Example 27] | 0.1 to 1
O=C(O[C@H]1CCC2CCCC1N2S(=O)(=O)c1ccc(Cl)cc1)N1CCC[C@H]1CO (stereo partly shown) [Example 28] | 0.1 to 1
CCN(Cc1ccncc1)C(=O)O[C@H]1CCC2CCCC1N2S(=O)(=O)c1ccc(Cl)cc1 (stereo partly shown) [Example 29] | 0.1 to 1
O=C(O[C@@H]1C=CC2CCCC1N2S(=O)(=O)c1ccc(Cl)cc1)N1CCC(N2CCCCC2)CC1 (stereo partly shown) [Example 34] | 0.1 to 1
O=C(OC1CC2CCC1N2S(=O)(=O)c1ccc(Cl)cc1)N1CCC(N2CCCCC2)CC1 (stereo not shown) [Example 35] | 1 to 10
O=C(OC1C[C@H]2CCC1N2S(=O)(=O)c1ccc(Cl)cc1)N1CCN(C2CCCCC2)CC1 (stereo partly shown) [Example 36] | 1 to 10
CCN1CCN(C(=O)OC2C[C@H]3CCC2N3S(=O)(=O)c2ccc(Cl)cc2)CC1 (stereo partly shown) [Example 37] | 1 to 10
CC(C)N1CCN(C(=O)OC2C[C@H]3CCC2N3S(=O)(=O)c2ccc(Cl)cc2)CC1 (stereo partly shown) [Example 40] | 1 to 10
O=C(O[C@H]1CCC2CCC1N2S(=O)(=O)c1ccc(Cl)cc1)N1CCC(N2CCCCC2)CC1 (stereo partly shown) [Example 43] | 0.1 to 1
